From patent US9403806B1, “Cognition enhancing compounds and compositions, methods of making, and methods of treating” (NeuroSolis, Inc., priority 2010, dated 2016)

Test system: hippocampal inositol phosphate
Test: In vivo tissue inositol phosphate signaling pathway activation, hippocampus
Parameters: species or system Long Evans Hooded rats
Settings: rats, 30 mg/kg sc (FIG. 10B)
Procedure: Experimental compounds or drug substances were administered using standard techniques to Long Evans Hooded rats weighing 225 to 350 grams, and which had been pretreated with a subcutaneous injection of lithium chloride at a suitable dose between 3 and 10 mmoles per kg. At suitable times the animals were briefly anesthetized using 5% isoflurane and euthanized by decapitation. The brains and submaxillary salivary glands were rapidly dissected out, and the hippocampuses were dissected from the brains. The dissected tissues were homogenized in a suitable volume of ice-cold phosphate-buffered saline containing 10 mM lithium chloride, pH7.4, using a tissue homogenizer, and used immediately or frozen in aliquots at −80 deg C. for future use. The concentration of inositol-1-phosphate was determined in the homogenates using the IPOne TR-FRET assay (CisBio cat no 621PAPEB), following the manufacturer's instruction

## CCc1noc(C2CN=CNC2)n1 (stereo not shown) [MCD-386, 3-ethyl-5-(1,4,5,6-tetrahydropyrimidin-5-yl)-1,2,4-oxadiazole]
  increase in the concentration of IP in the hippocampus: 71%
